In ChEMBL document CHEMBL1201862, “PubChem BioAssay data set” (2004):
Active and inactive are the calls of the source.

How the values were obtained:
[1] = cells; type: functional
[2] = target: Cytochrome P450 3A4 (Homo sapiens, UniProt P08684);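 further: CYP3A4 tested as one member of a cytochrome P450 panel screen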
[3] = Luminescence Cell-Based Dose Confirmation HTS to Identify Inhibitors of Platelet Dense Granule Release. [Related pubchem assays: 1663 (Primary HTS), 1678 (Summary of Project)]; type: functional
[4] = target: Luciferin 4-monooxygenase (Photinus pyralis, UniProt P08659); test: inhibition of purified Photinus pyralis luciferase – biochemical, luminescence, dose response (AID 1891)
Chain of Luciferin 4-monooxygenase (P08659 whole entry): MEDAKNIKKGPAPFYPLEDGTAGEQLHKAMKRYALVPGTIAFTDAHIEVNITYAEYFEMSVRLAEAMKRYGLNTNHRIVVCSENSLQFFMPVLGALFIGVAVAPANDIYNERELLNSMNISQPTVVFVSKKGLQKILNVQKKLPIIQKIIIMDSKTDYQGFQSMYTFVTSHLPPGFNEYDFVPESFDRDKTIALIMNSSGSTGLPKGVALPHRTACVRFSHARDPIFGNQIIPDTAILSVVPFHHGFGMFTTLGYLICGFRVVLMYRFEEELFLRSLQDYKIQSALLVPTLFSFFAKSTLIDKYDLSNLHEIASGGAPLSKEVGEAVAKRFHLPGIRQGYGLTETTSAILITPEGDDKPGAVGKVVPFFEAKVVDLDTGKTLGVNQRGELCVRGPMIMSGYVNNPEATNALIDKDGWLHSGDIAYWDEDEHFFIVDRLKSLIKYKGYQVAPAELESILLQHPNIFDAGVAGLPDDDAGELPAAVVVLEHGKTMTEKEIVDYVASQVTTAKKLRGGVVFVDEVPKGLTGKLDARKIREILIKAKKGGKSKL

[5] = Luminescence Cell-Based Dose Retest to Confirm Inhibitors of Cancer Stem Cells. [Related pubchem assays (depositor defined):AID2717, AID2721]; type: functional; conditions: Homo sapiens
[6] = target: T1, Cytochrome P450 1A2 (Homo sapiens, UniProt P05177);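 further: PubChem cytochrome P450 panel assay, CYP1A2 panel member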
T1 sequence (P05177 whole entry): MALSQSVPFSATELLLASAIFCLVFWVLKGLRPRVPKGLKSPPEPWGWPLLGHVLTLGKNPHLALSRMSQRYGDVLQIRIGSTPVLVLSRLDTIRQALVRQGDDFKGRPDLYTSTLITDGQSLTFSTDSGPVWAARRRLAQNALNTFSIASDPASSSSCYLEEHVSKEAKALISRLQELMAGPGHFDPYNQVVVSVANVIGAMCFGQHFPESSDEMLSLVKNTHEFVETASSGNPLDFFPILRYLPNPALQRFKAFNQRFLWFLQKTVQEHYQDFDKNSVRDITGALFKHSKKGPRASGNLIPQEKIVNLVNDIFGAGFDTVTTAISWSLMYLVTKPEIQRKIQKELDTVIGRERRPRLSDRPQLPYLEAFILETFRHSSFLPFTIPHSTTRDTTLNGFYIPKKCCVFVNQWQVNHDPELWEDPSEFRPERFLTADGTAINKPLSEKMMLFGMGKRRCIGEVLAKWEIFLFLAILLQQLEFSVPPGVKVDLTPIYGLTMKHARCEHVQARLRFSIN

[7] = target: T2, Heat shock factor protein 1 (Mus musculus, UniProt P38532); test: decrease of HSF1-responsive luciferase luminescence – cell-based, NIH3T3, dose retest, confirmation (AID 2382); type: functional;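 further: NIH3T3 fibroblasts with HSF1-driven luciferase reporter stressed by proteasome inhibitor MG132; luminescence from HSF1-driven luciferase expression after 8 hours of MG132 stress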
T2 sequence (P38532 whole entry): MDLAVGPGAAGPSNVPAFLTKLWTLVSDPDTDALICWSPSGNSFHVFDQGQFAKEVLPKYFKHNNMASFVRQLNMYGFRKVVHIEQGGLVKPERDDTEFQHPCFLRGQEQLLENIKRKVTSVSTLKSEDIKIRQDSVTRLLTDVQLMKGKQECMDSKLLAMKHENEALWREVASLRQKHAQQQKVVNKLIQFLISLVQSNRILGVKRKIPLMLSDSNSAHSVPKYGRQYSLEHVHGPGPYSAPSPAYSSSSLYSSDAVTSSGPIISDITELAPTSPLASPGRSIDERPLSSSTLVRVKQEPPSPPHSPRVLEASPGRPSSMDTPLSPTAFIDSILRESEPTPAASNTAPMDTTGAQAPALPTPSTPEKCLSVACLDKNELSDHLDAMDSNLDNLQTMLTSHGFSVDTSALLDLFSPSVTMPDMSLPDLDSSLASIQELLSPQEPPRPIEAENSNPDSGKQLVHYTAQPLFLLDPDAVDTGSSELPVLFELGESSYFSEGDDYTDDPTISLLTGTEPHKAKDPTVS

[8] = test system: H4; test: Luminescence Cell-Based Dose Response HTS to Identify Activators of 5'UTR Stem-Loop Driven Prion Protein mRNA Translation in H4 Neuroglioblastoma Cells. [Related pubchem assays: 1829 (Project Summary), 1814 (Primary HTS)]; type: functional; conditions: Homo sapiens
[9] = Luminescence Cell-Based Dose Response HTS to Identify Activators of Luciferase Translation or Activity in H4 […] Cells. [Related pubchem assays: 1829 (Project Summary), 1814 (Primary HTS)]; type: functional
[10] = cells; type: functional, cell-based
[11] = NIH3T3 cell viability loss – ATP luminescence, mouse fibroblasts, counter-screen, dose response (AID 2010); type: functional, cell-based;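 further: cells exposed to compound for about 90 hours before reading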
[12] = Trypanosoma cruzi growth suppression in host cells – NIH3T3 host cells, beta-gal luminescence, confirmation (AID 2044); type: functional, cell-based;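 further: intracellular parasites grown in NIH/3T3 mouse fibroblasts as host cells; luminescent beta-galactosidase reporter signal from transgenic T. cruzi replicating inside host cells; inhibitors lower the luminescence signal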
[13] = test system: INS1; test: INS-1E survival protection against cytokine death – cell-based, luminescence, retest, dose response (AID 449756); type: functional; conditions: Rattus norvegicus;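 further: cell death triggered by IL-1 beta plus TNF-alpha plus IFN-gamma mixture; protective hits raise ATP signal compared with cytokine alone wells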
[14] = target: Cytochrome P450 2C19 (Homo sapiens, UniProt P33261); test: Cytochrome panel assay with activity outcomes. Panel member name: p450-cyp2c19 Compounds with AC50 equal or less than 10 uM are considered active; type: functional
Chain of Cytochrome P450 2C19 (P33261 whole entry): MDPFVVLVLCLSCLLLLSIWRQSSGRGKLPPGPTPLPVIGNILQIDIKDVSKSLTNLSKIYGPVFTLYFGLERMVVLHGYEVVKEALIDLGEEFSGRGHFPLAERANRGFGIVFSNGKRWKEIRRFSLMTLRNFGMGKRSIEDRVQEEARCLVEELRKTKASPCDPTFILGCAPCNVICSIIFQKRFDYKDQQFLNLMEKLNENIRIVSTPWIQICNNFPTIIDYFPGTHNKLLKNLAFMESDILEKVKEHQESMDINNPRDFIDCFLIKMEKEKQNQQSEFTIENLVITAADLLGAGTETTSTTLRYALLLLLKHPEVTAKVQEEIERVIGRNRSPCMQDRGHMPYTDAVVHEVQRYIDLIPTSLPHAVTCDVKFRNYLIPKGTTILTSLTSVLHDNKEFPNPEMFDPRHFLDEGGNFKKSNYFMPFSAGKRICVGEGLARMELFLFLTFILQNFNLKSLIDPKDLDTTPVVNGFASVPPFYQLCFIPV

[15] = target: T3, Corticotropin-releasing factor receptor 2/Corticotropin-releasing factor-binding protein (Homo sapiens, UniProt P24387+Q13324); test: activators of CRF receptor 2 with binding protein – uHTS hits, confirmation (AID 602473); type: functional; conditions: read-out: EC50_Mean
T3 sequence (Q13324 whole entry): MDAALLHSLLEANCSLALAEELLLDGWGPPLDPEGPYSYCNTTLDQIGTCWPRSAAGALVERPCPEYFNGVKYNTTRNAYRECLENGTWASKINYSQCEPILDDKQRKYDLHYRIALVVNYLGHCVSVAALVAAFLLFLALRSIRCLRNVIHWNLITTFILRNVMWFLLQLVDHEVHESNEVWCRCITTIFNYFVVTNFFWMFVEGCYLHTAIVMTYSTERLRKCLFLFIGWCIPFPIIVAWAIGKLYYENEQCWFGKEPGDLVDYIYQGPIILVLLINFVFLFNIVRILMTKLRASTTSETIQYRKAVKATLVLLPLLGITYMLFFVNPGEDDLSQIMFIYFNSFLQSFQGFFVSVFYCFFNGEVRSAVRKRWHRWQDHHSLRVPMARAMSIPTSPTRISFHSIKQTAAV
T3 sequence (P24387 whole entry): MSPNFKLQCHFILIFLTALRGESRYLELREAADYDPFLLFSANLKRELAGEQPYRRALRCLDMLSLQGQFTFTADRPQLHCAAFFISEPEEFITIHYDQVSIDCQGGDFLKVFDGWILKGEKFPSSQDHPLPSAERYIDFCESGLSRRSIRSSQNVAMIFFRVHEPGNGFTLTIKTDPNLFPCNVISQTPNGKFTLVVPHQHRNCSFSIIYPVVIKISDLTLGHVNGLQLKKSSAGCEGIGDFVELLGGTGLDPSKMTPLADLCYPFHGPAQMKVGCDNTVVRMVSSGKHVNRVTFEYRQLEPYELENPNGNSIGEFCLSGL

[16] = alpha-synuclein stem-loop luciferase translation blockers – H4 neuroglioma cells, luminescence, confirmation (AID 1988); type: functional, cell-based
[17] = Luminescence Cell-Based Dose Response HTS to Identify Inhibitors of 5'UTR Stem-Loop Driven Prion Protein mRNA Translation in H4 Neuroglioblastoma Cells. [Related pubchem assays: 1827 (Project Summary), 1813 (Primary HTS)]; type: functional
[18] = luciferase reporter signal suppression in cells – H4 neuroglioma cells, luminescence, dose response (AID 1990); type: functional, cell-based

Chain of Cytochrome P450 3A4 (P08684 whole entry): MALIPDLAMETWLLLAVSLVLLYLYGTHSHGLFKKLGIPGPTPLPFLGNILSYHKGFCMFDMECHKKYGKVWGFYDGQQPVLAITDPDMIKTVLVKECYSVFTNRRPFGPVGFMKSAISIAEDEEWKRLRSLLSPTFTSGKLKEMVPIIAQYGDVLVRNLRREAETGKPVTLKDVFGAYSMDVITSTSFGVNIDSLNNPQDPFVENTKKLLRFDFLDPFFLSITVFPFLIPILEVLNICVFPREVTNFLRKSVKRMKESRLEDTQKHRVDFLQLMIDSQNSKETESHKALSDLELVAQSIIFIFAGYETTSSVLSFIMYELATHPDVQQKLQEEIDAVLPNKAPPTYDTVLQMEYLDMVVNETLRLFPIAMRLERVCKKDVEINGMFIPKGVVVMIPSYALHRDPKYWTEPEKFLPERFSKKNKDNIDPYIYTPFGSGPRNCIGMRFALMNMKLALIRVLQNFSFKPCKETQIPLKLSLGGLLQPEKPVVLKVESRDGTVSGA

COC(=O)CCCC(=O)N1CCCC(C(=O)c2ccc(-c3ccccc3)cc2)C1 (centres undefined)
IC50 [1]: > 50 µM (active)

COc1cccc(Nc2ncc3nc(CCc4ccccc4)c(=O)n(CCC#N)c3n2)c1
AC50 [2]: 2 µM (inconclusive)

COc1ccc(CCn2c(=N)c(C(=O)NCC3CCCO3)cc3c(=O)n4ccccc4nc32)cc1OC (centres undefined)
EC50 [3]: > 112 µM (not active) | EC50 [4]: > 112 µM (not active)

COc1cccc(-c2nnc(-c3ccco3)o2)c1
EC50 [3]: 40.9 µM (active) | EC50 [4]: > 112 µM (not active)

CCCN(Cc1nnc(-c2ccccc2Cl)o1)C(=O)c1cc([N+](=O)[O-])cc([N+](=O)[O-])c1
IC50 [1]: 5.87 µM (active)

Cc1ccc(C)c(Nc2nc(N)c3ccccc3n2)c1
EC50 [3]: 11 µM (active) | EC50 [4]: 12.2 µM (active)

COc1cc([C@@H]2c3cc4c(cc3[C@@H](O)[C@H]3COC(=O)[C@H]23)OCO4)cc(OC)c1O[Si](C)(C)C(C)(C)C
AC50 [5]: 3.64 µM (active)

COCCNc1ncnc2ccc(-c3ccccc3CN(C)C)cc12
AC50 [2]: 31.6 µM (inconclusive) | AC50 [6]: 25.1 µM (inconclusive)

CC(C)(C)NC(=O)Cn1nnc(-c2ccc(OCc3c(F)cccc3Cl)cc2)n1
AC50 [5]: 1.33 µM (active)

Cc1ccc(Oc2nc(CN3CCOCC3)nc3sc4c(c23)CCC(C)C4)cc1C (centres undefined)
AC50 [5]: 6.74 µM (active) | EC50 [7]: > 195 µM (not active)

O=C1NC(=O)N(CCC2=CCCCC2)C(=O)/C1=C\NNc1ccccc1
AC50 [5]: 2.46 µM (active)

CCOc1ccc(C(=O)CSc2nnc3ccccn23)cc1
EC50 [8]: > 120 µM (not active) | EC50 [9]: 35.7 µM (active)

CCc1ccc(NC(=O)COc2ccc3c(c2)OCO3)cc1
IC50 [1]: > 50 µM (active)

Cc1ccc2nc(-c3ccc(NS(=O)(=O)c4c(C)n(C)c(=O)n(C)c4=O)cc3)sc2c1
EC50 [9]: 2.06 µM (active)

O=C(COC(=O)c1ccc(Cl)s1)c1ccc[nH]1
IC50 [1]: 5.77 µM (active)

Cc1nnc2sc(-c3ccc(-c4ccc(Cl)c(C(F)(F)F)c4)o3)nn12
EC50 [3]: > 112 µM (not active) | EC50 [4]: > 112 µM (not active)

O=C(O)CC(NC(=O)C(c1ccccc1)c1ccccc1)c1ccco1 (centres undefined)
EC50 [3]: > 112 µM (not active) | EC50 [4]: > 112 µM (not active)

CCCCn1c(=O)c(C(=O)NCc2ccc(Cl)cc2)c(O)c2ccccc21
AC50 [5]: 5.25 µM (active)

Cc1ccc(C(=O)Nc2nccs2)cc1
IC50 [1]: 41.4 µM (active)

O=C(c1ccccc1)c1cc2cc(Cl)ccc2[nH]1
EC50 [8]: 13.9 µM (active) | EC50 [9]: 94.6 µM (active)

CC(C)NC(=O)N1CCCC2(CCN(C(=O)c3ccco3)CC2)C1
AC50 [2]: 25.1 µM (inconclusive)

CCCn1c(SCC(=O)N2CCCC(C)C2)nnc1-c1ccccn1 (centres undefined)
EC50 [3]: > 112 µM (not active) | EC50 [4]: > 112 µM (not active)

CCOc1ccc(C2=NN=C(c3ccc(N4CCOCC4)cc3)c3ccccc3N2)cc1
EC50 [8]: > 120 µM (not active) | EC50 [9]: 30.1 µM (active)

O=C(CSc1nc(-c2ccccc2)cc(C(F)(F)F)n1)c1cccc([N+](=O)[O-])c1
AC50 [5]: 5.41 µM (active)

CCOc1ccc(NC(=O)Nc2cc(C)ccc2F)cc1
EC50 [3]: 1.81 µM (active) | EC50 [4]: 1.02 µM (active)

COc1cc(CNc2ccc3[nH]c(O)nc3c2)ccc1OCC(=O)NC(C)(C)C
EC50 [3]: 12.4 µM (active)

Cc1nc2nc3c(cn2n1)C(=O)CC(c1ccccc1)C3 (centres undefined)
EC50 [10]: > 350 µM (not active)

CN(C)c1ccc(CNC(=O)c2cc(S(=O)(=O)N3CCOCC3)cn2C)cc1
EC50 [3]: > 112 µM (not active) | EC50 [4]: > 112 µM (not active)

COc1ccc(-c2nc(NC(=O)c3cc(C(C)(C)C)nn3C)sc2C)cc1
AC50 [5]: 7.12 µM (active) | EC50 [11]: 8.58 µM (active) | EC50 [12]: 1.76 µM (active) | AC50 [13]: 10.2 µM (active)

Cn1c(SCC(=O)N=Nc2c(O)[nH]c3ccccc23)nc2ccccc21
EC50 [3]: > 112 µM (not active) | EC50 [4]: > 112 µM (not active)

[O-]/[N+](=C/c1ccc(F)cc1)c1ccc(Cl)cc1
EC50 [3]: > 112 µM (not active) | EC50 [4]: > 112 µM (not active)

c1ccc2[nH]c(NC3=NCCC3)nc2c1
AC50 [14]: inconclusive | IC50 [1]: 12.2 µM (active)

O=C(c1ccccc1-c1nc(-c2ccccc2)no1)N1CCOCC1
AC50 [2]: 28.2 µM (inconclusive) | AC50 [6]: 39.8 µM (inconclusive)

CCOC(=O)N1CCC(NC(=O)c2cc(S(=O)(=O)N3CCCC3)cn2C)CC1
AC50 [2]: 14.1 µM (inconclusive) | AC50 ([14]; read-out: AC50): 8.91 µM (inconclusive)

CCc1cccc(C)c1NC(=S)N1CCCCC1c1cccnc1 (centres undefined)
EC50 [15]: 6.05 µM (active)

CN(C)c1ccc(C=NN2C(=O)CSC2=S)c(Cl)c1
EC50 [15]: > 53 µM (inactive)

COc1ccccc1N1CCN(CCn2c(=O)[nH]c3c([nH]c4ccccc43)c2=O)CC1
AC50 [2]: 15.8 µM (inconclusive) | AC50 [6]: 39.8 µM (inconclusive)

COc1ccccc1N(CC(=O)N/N=C/c1c(O)ccc2ccccc12)S(C)(=O)=O
EC50 [10]: 9.19 µM (active) | EC50 [16]: 8.56 µM (active) | EC50 [17]: 22.8 µM (active) | AC50 [13]: 2.15 µM (active) | EC50 [18]: 13.5 µM (active)

C/C(Cn1nnc([N+](=O)[O-])n1)=N\NC(=O)c1ccncc1
EC50 [11]: > 30 µM (not active) | IC50 [1]: 0.3 µM (active) | EC50 [12]: 0.214 µM (active)

O=S(=O)(N/N=C1/CC(c2ccccc2)Oc2ccccc21)c1ccc(Br)cc1 (centres undefined)
AC50 [5]: 2.79 µM (active)

COc1ccc(/C=N/Nc2ncccc2[N+](=O)[O-])c(OC)c1
EC50 [3]: 2.57 µM (active) | EC50 [4]: 2.42 µM (active)

CCc1ccc(/C=N/NC(=O)c2nnn(-c3nonc3N)c2CN2CCOCC2)cc1
EC50 [3]: 52.9 µM (active) | EC50 [4]: > 112 µM (not active)

COc1ccccc1N1CCN(CCN2C(=O)c3ccccc3C(C)(C)C2=O)CC1
AC50 [2]: 15.8 µM (inconclusive) | AC50 [6]: 39.8 µM (inconclusive)
